Reference: patent publication EP1801111A1, “Novel polymorph forms of olmesartan medoxomil” (LEK Pharmaceuticals d.d., priority 2005, dated 2007)

Key:
[1] = Hygroscopicity: mass change after exposing to air moisture; format: physicochemical; conditions: for increase of the mass of the sample: after exposing to air moisture for 6 days
[2] = 1 n hcl

| SMILES | increase of the mass of the sample [1] | solubility in 1 N HCI [2] | increase of the mass of the sample ([1]; hemihydrate) | hygroscopicity (in words) ([1]; compared with the prior art substance) |
| --- | --- | --- | --- | --- |
| CCCc1nc(C(C)(C)O)c(C(=O)OCc2oc(=O)oc2C)n1Cc1ccc(-c2ccccc2-c2nnn[nH]2)cc1 [prior art substance, olmesartan medoxomil] | 0,61% | approximately 2 mg |  |  |
| CCCc1nc(C(C)(C)O)c(C(=O)OCc2oc(=O)oc2C)n1Cc1ccc(-c2ccccc2-c2nnn[nH]2)cc1 [partially crystalline or amorphous, olmesartan medoxomil] |  | up to 7 mg/ml |  |  |
| CCCc1nc(C(C)(C)O)c(C(=O)OCc2oc(=O)oc2C)n1Cc1ccc(-c2ccccc2-c2nnn[nH]2)cc1 [olmesartan medoxomil hemihydrate] |  | around 3 mg/ml | did not increase | not hydroscopic |
